Read-outs that look alike come from different tables or passages of the source.
How the values were obtained:
[1] = test system: human colon carcinoma HCT-116 cells; assay: MTT cell viability assay, HCT-116; format: cell-based
Experimental: (§1) Human alveolar basal epithelial cell line (A-549) and human colon carcinoma (HCT-116), purchased from ATCC, USA, were used to evaluate the anticancer properties of the compounds. Cells were routinely cultured in RPMI (Roswell Park Memorial Institute Medium), except HCT-116 cells which were cultured in McCoy's medium. All media were supplemented with 10% fetal bovine serum (FBS), 2 mM L-glutamine, 100 units/ml penicillin G sodium, 100 units/ml streptomycin sulphate, and 250 ng/ml amphotericin B. Cells were maintained at sub-confluency at 37° C. in humidified air containing 5% CO2. For sub-culturing, monolayer cells were harvested after trypsin/EDTA treatment at 37° C. Cells were used when confluence had reached 75%. Tested samples were dissolved in dimethyl sulphoxide (DMSO), and then diluted in the assay to begin with the indicated concentration. All cell culture material was obtained from Cambrex BioScience (Copenhagen, Denmark). All chemicals were from Sigma/Aldrich, USA, unless otherwise indicated. All experiments were repeated three times, unless otherwise indicated.
Cytotoxicity of tested samples was measured against different cancer cells using the MTT Cell Viability Assay. The 3-[4,5-dimethylthiazole-2-yl]-2,5-diphenyltetrazolium bromide (MTT) assay is based on the ability of an active mitochondrial dehydrogenase enzyme of living cells to cleave the tetrazolium rings of the yellow MTT and form dark blue insoluble formazan crystals which are largely impermeable to cell membranes, resulting in its accumulation within healthy cells. Dissolution of the cells results in the liberation of crystals, which are then solubilized. The number of viable cells is directly proportional to the level of soluble formazan dark blue color. The extent of the reduction of MTT was quantified by measuring the absorbance at 570 nm.
MTT solution: 5 mg/ml of MTT in 0.9% NaCl.
Acidified isopropanol: 0.04 N HCl in absolute isopropanol.
Cells (0.5×10^5 cells/well), in serum-free media, were plated in a flat bottom 96-well microplate, and treated with 20 μl of different concentrations of the tested samples for 48 h at 37° C., in a humidified 5% CO2 atmosphere. After incubation, media was removed and 40 μl MTT solution/well were added and the cells were incubated for an additional 4 h. MTT crystals were solubilized by adding 180 μl of acidified isopropanol/well and plates were kept at room temperature, followed by photometric determination of the absorbance at 570 nm using a microplate ELISA reader. Triplicate repeats were performed for each concentration and the average was calculated. Data were expressed as the percentage of relative viability compared with the untreated cells compared with the vehicle control, with cytotoxicity indicated by <100% relative viability
The percentage of relative viability was calculated using the following equation: [Absorbance of treated cells/Absorbance of control cells)]×100 Then the half maximal inhibitory concentration (IC50) was calculated from the equation of the concentration vs % of viability curve. Results and Discussion

[2] = MTT cell viability assay, A-549; format: cell-based, human; settings: compared to the tumor cell line HCT116
Experimental: as §1, with “Tested samples were dissolved in dimethyl sulphoxide (DMSO), and then diluted in the assay to begin with the indicated concentration. All cell culture material was obtained from Cambrex BioScience (Copenhagen, Denmark). All chemicals were from Sigma/Aldrich, USA, unless otherwise indicated. All experiments were repeated three times, unless otherwise indicated.” left out
(§2) Cytotoxicity of tested samples was measured against different cancer cells using the MTT Cell Viability Assay. […] The extent of the reduction of MTT was quantified by measuring the absorbance at 570 nm. […]
(§3) Cells (0.5×10^5 cells/well), in serum-free media, were plated in a flat bottom 96-well microplate, and treated with 20 μl of different concentrations of the tested samples for 48 h at 37° C., in a humidified 5% CO2 atmosphere. […] MTT crystals were solubilized by adding 180 μl of acidified isopropanol/well and plates were kept at room temperature, followed by photometric determination of the absorbance at 570 nm using a microplate ELISA reader. […]

[3] = test system: normal human alveolar basal epithelial cell line (A-549); assay: MTT cell viability assay, A-549; format: cell-based; settings: A-549 versus HCT116
Experimental: as §1, with “Tested samples were dissolved in dimethyl sulphoxide (DMSO), and then diluted in the assay to begin with the indicated concentration. All cell culture material was obtained from Cambrex BioScience (Copenhagen, Denmark). All chemicals were from Sigma/Aldrich, USA, unless otherwise indicated. All experiments were repeated three times, unless otherwise indicated.” left out
as §2, §3

[4] = Homo sapiens, HCT-116, 48 h treatment, read-out: IC50 against the colon cancer cell line HCT 116

SMILES	IC50 [1, 4] [nM]	also measured
Cc1ccc(N/N=C(\C=O)C(=O)c2cccc(C(=O)/C(C=O)=N/Nc3ccc(C)cc3)n2)cc1 [Compound 11a, (2E,2′E)-3,3′-(pyridine-2,6-diyl)bis(3-oxo-2-(2-(p-tolyl)hydrazineylidene)propanal)]	277	–
N#Cc1ccccc1N/N=C(/C=O)C(=O)c1ccc(C(=O)/C(C=O)=N/Nc2ccccc2C#N)cc1 [Compound 9b, 2-(2-((E)-1-(4-((Z)-2-(2-(2-cyanophenyl)hydrazineylidene)-3-oxopropanoyl)phenyl)-1,3-dioxopropan-2-ylidene)hydrazineyl)benzonitrile]	299	–
Cc1ccc(NN=C(C=O)C(=O)c2ccc(C(=O)/C(C=O)=N/Nc3ccc(C)cc3)cc2)cc1 [Compound 9a]	–	IC50 ([1]; 48 h treatment, read-out: IC50 against the colon cancer cell line HCT 116): 126 nM

Further compounds by falling IC50 [1, 4], results first:

IC50 [1, 4] [nM]	SMILES	also measured
126	COc1cccc2c1C(=O)c1c(O)c3c(c(O)c1C2=O)C[C@@](O)(C(=O)CO)C[C@@H]3O[C@H]1C[C@H](N)[C@H](O)[C@H](C)O1 [Doxorubicin, reference compound]	–
98	N#Cc1ccccc1N/N=C(\C=O)C(=O)c1cccc(C(=O)/C(C=O)=N/Nc2ccccc2C#N)n1 [Compound 11b, 2,2′-(((2E,2′E)-pyridine-2,6-diylbis(1,3-dioxopropan-1-yl-2-ylidene))bis(hydrazin-1-yl-2-ylidene))dibenzonitrile]	IC50 ([1]; Homo sapiens, HCT-116, 48 h treatment, read-out: IC50 for HCT116 cancer cells): 98 ± 30 nM; Cytotoxic effects on the normal, non-tumorigenic A-549 cell line [2]: only weak cytotoxic effects; Selectivity index [3]: excellent selectivity index
